Experimental data: a melting point compilation (Tetko et al.; mined from patent text by program, amines drawn as free bases though some values may be those of a salt)

| SMILES | melting point [°C] |
| --- | --- |
| CCNC(=O)N(O)C(c1ccccc1)c1cc(C(C)(C)C)c(O)c(C(C)(C)C)c1 (configuration not stated) | 158 to 160 |
| C=C1CCC2C3CCc4cc(OC(C)=O)ccc4C3CCC12C (configuration not stated) | 77 to 79 |
| CCNC(=O)Nc1ccc(N(C)C)cc1C(=O)NCC1CCN(C(c2ccccc2)c2ccccc2)CC1 | 186 to 188 |
| C[C@@H](n1cnc2cc(N3CCN(C)CC3)ccc2c1=O)[C@](O)(Cn1cncn1)c1ccc(F)cc1F | 121 to 131 |
| CC(C)(C)OC(=O)Nc1ccc(F)c(F)c1 | 135 to 137 |
| COC(=O)NNC(=S)Cc1ccc(C(C)(C)C)cc1 | 93.5 to 94 |
| CCOC(=O)C(Cc1ccccc1)(Cc1ccc([N+](=O)[O-])cc1)C(=O)OCC | 70 to 71 |
| O=C(O)c1c2nc3cc(Cl)c(Br)cc3c-2[nH]c2ccccc12 | > 243 |
| N#CC1=C(c2ccccc2)Nc2n[nH]cc2C1c1ccccc1[N+](=O)[O-] (configuration not stated) | 221 |
| CCOC(=O)C(=O)Nc1cc(OC)cc(NC(=O)C(=O)OCC)n1 | 155 to 156 |
| NCCCCc1ccc(C2=NNC(=O)CC2)cc1 | 167 to 168 |
| COc1ccc(S(=O)(=O)Nc2cccc(C)c2NC(=O)c2ccc(F)cc2)cc1 | 204 to 206 |
| O=C(NCCO)c1cc(Cl)c(O)c(Cl)c1 | 174 to 178 |
| Cc1oc2c(Br)cc(C3CCN(Cc4ccccc4)CC3)cc2c1C | 86 to 91 |
| c1cc(CN2CCCCC2)cc(OCCCNc2nnc3ccccn23)c1 | 150 to 151 |
| Cc1ccccc1-c1nccc2c(CC#N)cccc12 | 120 |
| Cn1c(=O)n(Cc2ccc3c(c2)OCO3)c(=O)c2cc(C(=O)NCc3ccc4c(c3)OCO4)ccc21 | 198 |
| COC(=O)C1=C(C)NC(C)=C(P(=O)(OC(C)C)OC(C)C)C1c1cccc([N+](=O)[O-])c1 (configuration not stated) | 205 to 207 |
| Cc1ccnc(Cl)c1C#N | 109 to 110 |
| CC(C)CC(=O)Nc1cccc(-c2ccnc3c(Br)cnn23)c1 | 132 to 134 |
| CC(C)C(=O)NC1CCc2c(c3cc(Br)ccc3n2Cc2cccc(F)c2)C1 (configuration not stated) | 177 to 179 |
| Cc1oc(-c2ccncc2)nc1COc1ccc(Cn2cc(CCC(=O)O)c(-c3ccccc3)n2)cc1 | 154 to 155 |
| c1cc(-n2ccnc2)cc(-n2cnc3cc(-c4ccon4)ccc32)c1 | 230 to 234 |
| CCN(CC)S(=O)(=O)c1cc(C)c2c(c1)S(=O)(=O)NC(C1CCCCC1)=N2 | 206 to 208 |

| SMILES | melting point [°C] |
| --- | --- |
| COc1csc2ccc(C(=O)O)c(Cl)c12 | 185 to 192 |
| Cc1nnsc1C(=O)Nc1ccc(-n2nc(C(F)(F)F)cc2C2CC2)cc1 | 84 to 89 |
| O=C(O)CCCC(Nc1ccccc1)c1ccc(Cl)cc1 (configuration not stated) | 133 to 134 |
| O=C(O)CNC1Cc2ccccc2C1 | 211 to 214 |
| CCN(CC)C(=O)c1ccc(C)c(-c2nc(NCCNC(C)C)nc3c2CNC(=O)N3c2c(F)cccc2F)c1 | 89 to 91 |
| COC(=O)c1[nH]c2c(C)ccc(C)c2c1C=O | 174 to 175 |
| CN(C)c1ccc(C(=O)c2ccc(N)cc2)cc1 | 150 |
| CC(C)CN1C(=O)C(C)(C)C(=O)Nc2ccc(C#N)cc21 | 219 to 220 |
| CC1(C)Cc2cc(C3=NNC(=O)C4CCC34)ccc2NC1=O (configuration not stated) | 301 to 302 |
| Cc1cccc(C(=O)NCN2CCN(c3ccccc3C#N)CC2)c1 | 131 to 133 |
| COc1nc(N)nc2oc(C)cc12 | 173 to 175 |
| Cc1ccncc1CN1CCC(=C2c3ccc(Cl)cc3CCc3cccnc32)CC1 | 95.5 to 101 |
| N#CN1c2ccccc2CC(=O)c2ccccc21 | 153 to 154 |
| CCN1CCNS(=O)(=O)c2cc(Oc3ccccc3)ccc21 | 138 |
| CCOC(=O)c1c(=O)c2cc(F)c(F)cc2n2ccccc12 | 200 |
| O=C1O[C@@H]2C[C@@]1(O)C[C@H]1OC(c3ccccc3)O[C@@H]21 (some centres not stated) | 96 to 97 |
| CSc1nc2ccnn2c2ncccc12 | 192 |
| CN(C)C(=O)[C@@H]1CCCN1C(=O)OCc1ccccc1 | 66 to 67 |
| CC1=C(Cc2ncc[nH]2)CCc2ccccc21 | 209 to 211 |
| N#Cc1ccc(Oc2cncc3sc(C(N)=O)cc23)cc1 | 255 to 257 |
| O=C(Nc1ccn2cc(CO)nc2c1)c1cc2cc(C(F)(F)F)ccc2n1Cc1cccc(F)c1 | 254 to 255 |
| COc1ccccc1-c1nc(=S)n(Cc2ccccc2)[nH]1 | 142 to 144 |
| CCN(CC)C(=O)n1nc(Oc2ncc(C(F)(F)F)cc2Cl)cc1C(F)(F)F | 58 to 60 |
| O=c1[nH]c2ncc(-c3ccc(O)cc3)nc2n1C1CCOCC1 | 382 to 383 |

| SMILES | melting point [°C] |
| --- | --- |
| C=CCC12CC(=O)N(C)C1(O)CCc1ccc(OCc3ccccc3)cc12 (configuration not stated) | 188 to 190 |
| CCCCCCC(C(=O)O)n1cc(Cc2ccccc2)c2cc(-c3ccccc3-c3nn[nH]n3)ccc21 (configuration not stated) | 108 to 112 |
| O=C1COCC(c2ccccc2)N1C(=O)Oc1ccc([N+](=O)[O-])cc1 (configuration not stated) | 105 to 109 |
| CCCCCCCCOc1cc(OC)cc(N)c1OCOC | 59 |
| O=[N+]([O-])c1ccc([N+](=O)[O-])c(OCC=CCBr)c1 | 81 to 83 |
| CCCc1nc2c(NOC)nc(C(c3ccccc3)(c3ccccc3)c3ccccc3)nc2n1CO | 188 |
| CC(C)c1ccc2nc3ccc(C(=O)OCCCc4cccnc4)cn3c(=O)c2c1 | 108 to 109 |
| CC(O)C#CC1(C)C=CN=C(N)N1 (configuration not stated) | 155 |
| COc1sc(-c2ccc(NS(=O)(=O)c3sc4ccc(F)cc4c3C)c(S(C)(=O)=O)c2)nc1C | 216 to 217 |
| CC(C)(C)OC(=O)Nc1ccc2ccc(S(=O)(=O)N(Cc3ccccc3)Cc3ccccc3)cc2c1 | 139 to 140 |
| COc1ccccc1NC(=O)Nc1nc(Nc2ccccc2-c2ccccc2)nc(N2CCCC(C(=O)O)C2)n1 (configuration not stated) | 245 to 247 |
| COc1ccccc1C1=CC(C)(C)Oc2ccc(C#N)cc21 | 109 to 111 |
| CCN(C(C)=O)c1cccc(-c2ccnc3c(Cl)cnn23)c1 | 157 to 159 |
| O=C1CC(Nc2ccc([N+](=O)[O-])cc2)=NN1c1c(Cl)cc(Cl)cc1Cl | 295 to 298 |
| CC(C)Oc1nc(O)ns1 | 74 |
| CN1CCN(c2ccc3nc(N)c(C#N)c(Cl)c3c2)CC1 | 189 |
| COCc1ccc(N2CCN(Cc3c[nH]c4ncccc34)CC2)cc1 | 162 to 163 |
| CCOC(=O)C(=O)NC1N=C2C(=Cc3ccccc32)S1 (configuration not stated) | 226 to 228 |
| C#CCN1C(=O)C(CC#N)C(CC)(CC)N=C1c1ccccc1 (configuration not stated) | 178 to 180 |
| Cc1onc(-c2cccc(Cl)c2)c1C(=O)O | 171 to 173 |
| C[C@@H](O)c1nccc(N2CCc3ccc(S(=O)(=O)N(C)C)cc3C2)n1 | 120 to 122 |
| CC1(C)Oc2ccc(OCc3ccccc3)cc2C2OC21 (configuration not stated) | 70 to 72 |
| CC(C)(C)NCC(O)c1cccc(C#N)c1F (configuration not stated) | 88 to 90 |
| CCOC(=O)c1c(C(C)(C)O)nc(SCC)n1Cc1ccc(-c2ccccc2-c2nnn[nH]2)cc1 | 185 to 188 |
